In paper PMC3447118 (Bioconjugate chemistry, 2012):

Tests used:
[1] = microPET imaging of U87MG tumor xenografts in mice; assay type: in vivo, nude mice; conditions: nude, mouse, iv, total radioactivity
[2] = tested on: U87MG tumor xenografts; experiment: microPET imaging of U87MG tumor xenografts in mice; assay type: in vivo, nude mice
[3] = tumor versus muscle (background)

SMILES: N=C(N)NCCC[C@@H]1NC(=O)[C@H](CCCCNC(=O)CC[C@H](NC(=O)COCCOCCOCCNC(=O)[C@@H]2CSC(c3nc4ccc(OCCF)cc4s3)=N2)C(=O)NCCCC[C@@H]2NC(=O)[C@@H](Cc3ccc(O)cc3)NC(=O)[C@H](CC(=O)O)NC(=O)CNC(=O)[C@H](CCCNC(=N)N)NC2=O)NC(=O)[C@@H](Cc2ccc(O)cc2)NC(=O)[C@H](CC(=O)O)NC(=O)CNC1=O [[^18F]CBTRGD2]
- tissue uptake at 0.5 h ([1]; kidney, 20 mg/kg): 2.76 ± 0.85 %ID/g
- tissue uptake at 1 h ([1]; kidney, 20 mg/kg): 1.26 ± 0.23 %ID/g
- tissue uptake at 2 h ([1]; kidney, 20 mg/kg): 0.81 ± 0.04 %ID/g
- tissue uptake at 0.5 h ([1]; kidney): 5.46 ± 1.1 %ID/g
- tissue uptake at 1 h ([1]; kidney): 3.99 ± 1.08 %ID/g
- tissue uptake at 2 h ([1]; kidney): 2.26 ± 0.67 %ID/g
- tissue uptake at 0.5 h ([1]; liver, 20 mg/kg): 1.34 ± 0.06 %ID/g
- tissue uptake at 1 h ([1]; liver, 20 mg/kg): 0.7 ± 0.08 %ID/g
- tissue uptake at 2 h ([1]; liver, 20 mg/kg): 0.32 ± 0.01 %ID/g
- tissue uptake at 0.5 h ([1]; liver): 3.64 ± 0.76 %ID/g
- tissue uptake at 1 h ([1]; liver): 2.84 ± 0.76 %ID/g
- tissue uptake at 2 h ([1]; liver): 2.15 ± 0.53 %ID/g
- tissue to tissue ratio at 0.5 h [1, 3]: 4.5 ± 0.83
- tissue to tissue ratio at 1 h [1, 3]: 5.4 ± 0.72
- tissue to tissue ratio at 2 h [1, 3]: 6.3 ± 1.1
- tissue uptake at 0.5 h ([1]; tumor, 20 mg/kg): 1.62 ± 0.1 %ID/g
- tissue uptake at 1 h ([1]; tumor, 20 mg/kg): 1.26 ± 0.13 %ID/g
- tissue uptake at 2 h ([1]; tumor, 20 mg/kg): 0.49 ± 0.02 %ID/g
- tissue uptake at 1 h ([1]; tumor): 4.25 ± 0.82 %ID/g
- tissue uptake at 2 h ([1]; tumor): 3.35 ± 0.71 %ID/g
- specific tumor uptake higher than that of [18F]FPPRGD2 ([2]; 30 min, comparison in the same mice (Fig S5, Table S1)): 50%
- uptakes in organs such as liver and kidney compared with [18F]FPPRGD2 ([2]; comparison in the same mice): higher
